Source: patent publication US9221826B2, “Pyrrolopyridazine JAK3 inhibitors and their use for the treatment of inflammatory and autoimmune diseases” (Bristol-Myers Squibb Company, priority 2011, dated 2015)

Legend:
Format in all cases: biochemical
[1] = biological target: T1, JAK3 enzyme (Homo sapiens, UniProt P52333); experiment: JAK3 Kinase Assay Protocol (Filter); conditions: 33P γ-ATP, 8 μM ATP, CSKtide substrate, read-out: LLE_JAK3_FB (IC50)
T1 sequence (P52333 1-1124): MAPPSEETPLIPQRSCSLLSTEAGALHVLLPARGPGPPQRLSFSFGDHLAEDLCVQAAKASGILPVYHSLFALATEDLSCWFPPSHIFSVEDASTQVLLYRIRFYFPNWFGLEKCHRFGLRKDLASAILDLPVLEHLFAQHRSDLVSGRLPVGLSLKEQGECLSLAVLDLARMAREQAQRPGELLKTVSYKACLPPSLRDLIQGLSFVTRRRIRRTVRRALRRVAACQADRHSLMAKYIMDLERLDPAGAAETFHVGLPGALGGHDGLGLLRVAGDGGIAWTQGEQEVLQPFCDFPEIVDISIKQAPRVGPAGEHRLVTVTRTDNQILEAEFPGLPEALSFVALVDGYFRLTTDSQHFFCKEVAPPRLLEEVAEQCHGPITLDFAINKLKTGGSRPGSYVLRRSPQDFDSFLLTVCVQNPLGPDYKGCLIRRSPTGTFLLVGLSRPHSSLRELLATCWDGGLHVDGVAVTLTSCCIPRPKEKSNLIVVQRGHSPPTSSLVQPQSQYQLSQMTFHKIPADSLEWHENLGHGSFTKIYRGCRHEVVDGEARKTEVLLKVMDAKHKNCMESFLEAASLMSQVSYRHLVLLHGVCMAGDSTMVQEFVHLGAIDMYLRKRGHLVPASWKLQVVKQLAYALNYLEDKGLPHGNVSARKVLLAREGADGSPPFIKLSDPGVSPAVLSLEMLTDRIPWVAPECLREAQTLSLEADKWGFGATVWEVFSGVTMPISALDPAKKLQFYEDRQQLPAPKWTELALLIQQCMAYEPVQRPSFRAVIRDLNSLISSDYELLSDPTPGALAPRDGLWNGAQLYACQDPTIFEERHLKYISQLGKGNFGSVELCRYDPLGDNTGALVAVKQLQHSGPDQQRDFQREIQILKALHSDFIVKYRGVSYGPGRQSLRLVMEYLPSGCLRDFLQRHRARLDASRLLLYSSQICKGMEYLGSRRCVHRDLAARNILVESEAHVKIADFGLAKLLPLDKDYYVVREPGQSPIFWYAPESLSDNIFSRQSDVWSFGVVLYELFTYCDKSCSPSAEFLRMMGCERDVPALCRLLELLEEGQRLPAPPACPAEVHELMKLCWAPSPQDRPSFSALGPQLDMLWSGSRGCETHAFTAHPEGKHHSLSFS
Description: Kinase reactions consisted of 5 ng of JAK3 enzyme, 30 uM CSKtide substrate, 0.2 μCi ^33P γ-ATP, 8 μM ATP in 30 μl kinase buffer (50 mM Hepes, pH 8.0, 10 mM MgCl2, 1 mM EGTA, 2 mM DTT). Reactions were incubated for 30 minutes at room temperature and stopped by the addition of cold trichloroacetic acid (TCA) to a final concentration of 15%. TCA precipitates were collected onto 384 well phosphocellulose filters (Millipore) using a Platemate to transfer the reaction mixture, washed on an EMBLA plate washer and the filters were quantitated using a TopCount 384-well liquid scintillation counter. […] Compounds were dissolved at 10 mM in dimethylsulfoxide (DMSO) and evaluated at six concentrations, each in triplicate. The final concentration of DMSO in the assay equaled 2%. IC50 values were derived by non-linear regression analysis.

[2] = biological target: T2, GST-JAK3 enzyme (Homo sapiens, UniProt P52333); experiment: JAK3 Kinase Assay Protocol (Caliper); conditions: Caliper LabChip assay, ATP 8 μM, fluoresceinated peptide; read-out: LLE_JAK3_CAL (IC50)
T2 sequence (P52333 1-1124): T1 sequence (P52333 1-1124)
Description: The assay reactions were performed in U-bottom 384-well plates. […] The reaction was initiated by the combination of GST-JAK3 enzyme with substrates and test compounds. The reactions were incubated at room temperature for 3 hours and terminated by adding 60 μl of 35 mM EDTA to each sample. Each reaction mixture was analyzed on the Caliper LabChip 3000 (Caliper, Hopkinton, Mass.) by electrophoretic separation of the fluorescent substrate and phosphorylated product. […] Compounds were dissolved at 10 mM in dimethylsulfoxide (DMSO) and evaluated at eleven concentrations. IC50 values were derived by non-linear regression analysis.

[3] = biological target: GST-JAK1 enzyme (Homo sapiens, UniProt P23458); experiment: JAK1 Kinase Assay Protocol; conditions: Caliper LabChip assay, ATP 100 μM, fluoresceinated peptide; read-out: LLE_JAK1 (IC50)
Description: The assay reactions were performed in U-bottom 384-well plates. The final assay volume was 30 μl prepared from 15 μl additions of enzyme and substrates (fluoresceinated peptide and ATP) and test compounds in assay buffer (20 mM HEPES pH 7.4, 10 mM MgCl2, 25 mM beta-glycerol phosphate, 0.015% Brij35 and 4 mM DTT). The reaction was initiated by the combination of GST-JAK1 enzyme with substrates and test compounds. The reactions were incubated at room temperature for 3 hours and terminated by adding 60 μl of 35 mM EDTA to each sample. Each reaction mixture was analyzed on the Caliper LabChip 3000 (Caliper, Hopkinton, Mass.) by electrophoretic separation of the fluorescent substrate and phosphorylated product. […] The final concentration of reagents in the assays was: ATP, 100 μM; fluoresceinated peptide, 1.5 μM; GST-JAK1, 12.5 nM; and DMSO, 1.6%. […] Compounds were dissolved at 10 mM in dimethylsulfoxide (DMSO) and evaluated at eleven concentrations. IC50 values were derived by non-linear regression analysis.

Chain of GST-JAK1 enzyme (P23458 whole entry): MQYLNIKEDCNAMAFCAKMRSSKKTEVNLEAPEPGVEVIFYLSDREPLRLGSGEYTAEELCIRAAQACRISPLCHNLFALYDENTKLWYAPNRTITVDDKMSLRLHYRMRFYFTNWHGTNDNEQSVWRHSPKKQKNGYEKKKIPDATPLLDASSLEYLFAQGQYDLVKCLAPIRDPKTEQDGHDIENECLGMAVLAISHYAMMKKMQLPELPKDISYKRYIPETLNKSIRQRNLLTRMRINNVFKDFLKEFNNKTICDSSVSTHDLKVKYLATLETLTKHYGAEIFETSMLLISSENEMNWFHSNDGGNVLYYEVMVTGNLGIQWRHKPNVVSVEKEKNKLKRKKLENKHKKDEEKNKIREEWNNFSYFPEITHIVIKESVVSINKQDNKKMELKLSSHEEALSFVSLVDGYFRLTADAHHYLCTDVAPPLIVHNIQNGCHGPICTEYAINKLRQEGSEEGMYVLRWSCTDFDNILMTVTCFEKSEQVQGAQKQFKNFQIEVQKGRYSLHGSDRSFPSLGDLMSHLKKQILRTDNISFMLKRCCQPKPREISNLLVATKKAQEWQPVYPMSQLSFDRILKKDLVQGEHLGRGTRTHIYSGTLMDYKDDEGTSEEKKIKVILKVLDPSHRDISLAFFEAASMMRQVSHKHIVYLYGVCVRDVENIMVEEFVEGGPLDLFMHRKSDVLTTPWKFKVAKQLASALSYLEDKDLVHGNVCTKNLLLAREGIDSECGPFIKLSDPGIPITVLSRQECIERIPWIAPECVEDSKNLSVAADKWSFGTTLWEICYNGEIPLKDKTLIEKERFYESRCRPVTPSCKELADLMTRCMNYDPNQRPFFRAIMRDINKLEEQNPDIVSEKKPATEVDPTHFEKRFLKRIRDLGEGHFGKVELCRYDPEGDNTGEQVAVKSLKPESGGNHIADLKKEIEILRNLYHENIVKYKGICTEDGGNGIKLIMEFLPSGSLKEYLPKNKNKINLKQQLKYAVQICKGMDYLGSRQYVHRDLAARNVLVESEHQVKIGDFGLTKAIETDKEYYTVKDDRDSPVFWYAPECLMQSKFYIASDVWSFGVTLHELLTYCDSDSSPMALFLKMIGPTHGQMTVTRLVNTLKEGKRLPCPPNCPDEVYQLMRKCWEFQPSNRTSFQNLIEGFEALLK

CC1CCN(c2cc3c(N[C@H](C)C(C)(C)F)c(C(N)=O)cnn3c2)C1=O (mixture of isomers) [Example 134]
IC50 [1]: 8.7 nM | IC50 [2]: 8 nM | IC50 [3]: 40.1 nM

CC(Nc1c(C(N)=O)cnn2cc(-c3ccncc3)cc12)c1cc(F)ccc1F (racemic) [Example 181, (+/−)-4-((1-(2,5-difluorophenyl)ethyl)amino)-6-(4-pyridinyl)pyrrolo[1,2-b]pyridazine-3-carboxamide]
IC50 [1]: 49.2 nM | IC50 [2]: 96.4 nM | IC50 [3]: 106 nM

C[C@@H](Nc1c(C(N)=O)cnn2cc(-c3cccc(C(O)CO)c3)cc12)C1CC1 (mixture of isomers) [Example 187, (R)-4-(1-cyclopropylethylamino)-6-(3-(1,2-dihydroxyethyl)phenyl)pyrrolo[1,2-b]-pyridazine-3-carboxamide]
IC50 [1]: 1 nM | IC50 [2]: 1.3 nM | IC50 [3]: 3 nM

CC(Nc1c(C(N)=O)cnn2cc(-c3ccccc3)cc12)C(C)(C)C(N)=O (racemic) [Example 193, (+/−)-4-(4-amino-3,3-dimethyl-4-oxobutan-2-ylamino)-6-phenylpyrrolo[1,2-b]-pyridazine-3-carboxamide]
IC50 [1]: 1.8 nM | IC50 [3]: 2.7 nM

COc1ccc(-c2cc3c(N[C@H](C)C(O)C4CC4)c(C(N)=O)cnn3c2)cn1 (single isomer, unassigned; isomer a) [Example 210]
IC50 [1]: 0.5 nM | IC50 [2]: 0.8 nM | IC50 [3]: 3.6 nM

C[C@@H](Nc1c(C(N)=O)cnn2cc(N3CCCC3=O)cc12)C(C)(C)C [Example 2]
IC50 [1]: 0.9 nM | IC50 [2]: 3.7 nM | IC50 [3]: 43 nM

C[C@@H](Nc1c(C(N)=O)cnn2cc(-n3ccccc3=O)cc12)C(C)(C)C [Example 5]
IC50 [1]: 48.4 nM | IC50 [2]: 24 nM | IC50 [3]: 193 nM

CCOC(=O)Nc1cc2c(N[C@H](C)C(C)(C)C)c(C(N)=O)cnn2c1 [Example 9]
IC50 [1]: 0.2 nM | IC50 [2]: 0.7 nM | IC50 [3]: 7 nM

C[C@@H](Nc1c(C(N)=O)cnn2cc(N3CCCCS3(=O)=O)cc12)C(C)(C)C [Example 17]
IC50 [1]: 21.6 nM | IC50 [2]: 22.4 nM | IC50 [3]: 141 nM

CC(C)[C@H]1COC(=O)N1c1cc2c(N[C@H](C)C(C)(C)C)c(C(N)=O)cnn2c1 [Example 18]
IC50 [1]: 109 nM | IC50 [2]: 105 nM | IC50 [3]: 570 nM

C[C@@H](Nc1c(C(N)=O)cnn2cc(N3CCOC3=O)cc12)C(C)(C)C [Example 22]
IC50 [1]: 0.7 nM | IC50 [2]: 2.8 nM | IC50 [3]: 34 nM

C[C@@H](Nc1c(C(N)=O)cnn2cc(N3CCN(C)C3=O)cc12)C(C)(C)C [Example 25]
IC50 [1]: 5.9 nM | IC50 [2]: 4.7 nM | IC50 [3]: 86 nM

C[C@@H](Nc1c(C(N)=O)cnn2cc(N3CCNC3=O)cc12)C(C)(C)C [Example 29]
IC50 [1]: 1.2 nM | IC50 [2]: 5.3 nM | IC50 [3]: 46.1 nM

C[C@@H](Nc1c(C(N)=O)cnn2cc(-c3ccc(F)cc3)cc12)C(C)(C)F [Example 37]
IC50 [1]: 18.8 nM | IC50 [2]: 0.6 nM | IC50 [3]: 3.8 nM

C[C@@H](Nc1c(C(N)=O)cnn2cc(-c3ccn[nH]3)cc12)C(C)(C)F [Example 43]
IC50 [1]: 1.2 nM | IC50 [2]: 2.5 nM | IC50 [3]: 8.8 nM

C[C@@H](Nc1c(C(N)=O)cnn2cc(-c3cccc(C#N)c3)cc12)C(C)(C)F [Example 53, (R)-6-(3-cyanophenyl)-4-(3-fluoro-3-methylbutan-2-ylamino)pyrrolo[1,2-b]pyridazine-3-carboxamide]
IC50 [1]: 0.9 nM | IC50 [2]: 1.4 nM | IC50 [3]: 5.2 nM

C[C@@H](N)c1cccc(-c2cc3c(N[C@H](C)C(C)(C)F)c(C(N)=O)cnn3c2)c1 [Example 62]
IC50 [1]: 0.7 nM | IC50 [2]: 1.8 nM | IC50 [3]: 4 nM

C[C@@H](Nc1c(C(N)=O)cnn2cc(-c3cccc(CN)c3)cc12)C(C)(C)F [Example 68, 6-(3-(aminomethyl)phenyl)-4-(((1R)-2-fluoro-1,2-dimethylpropyl)amino) pyrrolo[1,2-b]pyridazine-3-carboxamide]
IC50 [1]: 0.7 nM | IC50 [2]: 1 nM

NC(=O)c1cnn2cc(-c3ccccc3)cc2c1N[C@H](C(N)=O)c1ccccc1 [Example 125]
IC50 [1]: 18.6 nM | IC50 [2]: 66.7 nM | IC50 [3]: 260 nM

CSc1nnc(-c2cc3c(N[C@H](C)C4CC4)c(C(N)=O)cnn3c2)o1 [Example 127, (R)-4-(1-cyclopropylethylamino)-6-(5-(methylthio)-1,3,4-oxadiazol-2-yl)pyrrolo[1,2-b]pyridazine-3-carboxamide]
IC50 [1]: 26 nM | IC50 [2]: 23.4 nM | IC50 [3]: 160 nM

C[C@@H](Nc1c(C(N)=O)cnn2cc(N3CCOCC3=O)cc12)C(C)(C)F [Example 129]
IC50 [1]: 11 nM | IC50 [2]: 8.4 nM | IC50 [3]: 61.1 nM

C[C@@H](Nc1c(C(N)=O)cnn2cc(N3CCCS3(=O)=O)cc12)C(C)(C)F [Example 131]
IC50 [1]: 11.3 nM | IC50 [2]: 4.8 nM | IC50 [3]: 83.1 nM

CC(C)Nc1c(C(N)=O)cnn2cc(-c3ccc(C#N)cc3)cc12 [Example 146]
IC50 [1]: 15.1 nM | IC50 [2]: 11.1 nM | IC50 [3]: 26.5 nM

CC(C)Nc1c(C(N)=O)cnn2cc(-c3ccc4c(c3)OCO4)cc12 [Example 149]
IC50 [2]: 23.8 nM

CC(C)Nc1c(C(N)=O)cnn2cc(-c3ccnc4ccccc34)cc12 [Example 153]
IC50 [1]: 178 nM | IC50 [2]: 223 nM | IC50 [3]: 402 nM

COc1cc(-c2cc3c(NC(C)C)c(C(N)=O)cnn3c2)c(F)cn1 [Example 154]
IC50 [1]: 35.1 nM | IC50 [2]: 56.3 nM | IC50 [3]: 149 nM

COc1ccc(-c2cc3c(N[C@H](C)C(C)(C)c4nc(C(N)=O)co4)c(C(N)=O)cnn3c2)cc1 [Example 219]
IC50 [2]: 1.2 nM | IC50 [3]: 0.6 nM

C[C@@H](Nc1c(C(N)=O)cnn2cc(-c3ccc(C#N)cc3)cc12)C(C)(C)c1nc(C(N)=O)co1 [Example 222]
IC50 [2]: 0.9 nM | IC50 [3]: 0.4 nM

CC[C@@H](c1nc(C(N)=O)co1)[C@@H](C)Nc1c(C(N)=O)cnn2cc(-c3ccc(OC)nc3)cc12 [Example 224, 2-((2R,3R)-2-((3-carbamoyl-6-(6-methoxypyridin-3-yl)pyrrolo[1,2-b]pyridazin-4-yl)amino)pentan-3-yl)oxazole-4-carboxamide]
IC50 [2]: 0.3 nM | IC50 [3]: 0.5 nM

C[C@@H](O)[C@@H](COP(=O)(O)O)Nc1c(C(N)=O)cnn2cc(-c3ccccc3)cc12 [Example 240, (2R,3R)-2-((3-carbamoyl-6-phenylpyrrolo[1,2-b]pyridazin-4-yl)amino)-3-hydroxybutyl dihydrogen phosphate, disodium]
IC50 [2]: 880 nM | IC50 [3]: 2200 nM
